Reference: patent US9133115B2 (ACHILLION PHARMACEUTICALS, INC., priority 2008, dated 2015)
Read-outs that look alike come from different tables or passages of the source.

Tested on: HCV replicon
Test: HCV replicon replication assay (NPT ELISA) in Huh-7 replicon-containing cells
Assay type: cell-based
Conditions: Hepatitis C virus
Protocol: Compounds claimed herein are tested for the ability to inhibit viral replication of the Hepatitis C replicon in cultured cells in which the HCV replicon construct has been incorporated. The HCV replicon system was described by Bartenschlager, et. al (Science, 285, pp. 110-113 (1999)). The replicon system is predictive of in vivo anti-HCV activity; compounds that are active in humans uniformly evidence activity in the replicon assay.
In this assay HCV replicon containing cells are treated with different concentrations of the test compound to ascertain the ability of the test compound to suppress replication of the HCV replicon. As a positive control, HCV replicon-containing cells are treated with different concentrations of interferon alpha, a known inhibitor of HCV replication. The replicon assay system includes Neomycin Phosphotransferase (NPT) as a component of the replicon itself in order to detect the transcription of replicon gene products in the host cell. Cells in which the HCV replicon is actively replicating have high levels of NPT; the level of NPT is proportional to HCV replication. […] The NPT level of each sample is measured using a captured ELISA.
A protocol for testing compounds for the ability to inhibit viral replication of the Hepatitis C replicon cultured cells in which the replicon construct has been incorporated, follows.
The HCV replicon contains, 5′-3′, the HCV-IRES, the neomycin phosphotransferase (neo) gene, the IRES of encephalomyocarditis virus, which directs translation of HCV sequences NS3 to NS5B, and the 3′-NTR. The sequence of the HCV replicon has been deposited in GenBank (Accession no. AJ242652).
The replicon is transfected into Huh-7 cells using standard methods such as electroporation.
The equipment and materials include, but are not limited to, Huh-7 HCV replicon-containing cells, maintenance media (DMEM (Dulbecco's modified Eagle media) supplemented with 10% FBS, L-glutamine, non-essential amino acids, penicillin (100 units/ml), streptomycin (100 micrograms/ml), and 500 micrograms/ml of Geneticin (G418), screening media (DMEM supplemented with 10% FBS, L-glutamine, non-essential amino acids, penicillin (100 units/ml) and streptomycin (100 micrograms/ml)), 96 well tissue culture plates (flat bottom), 96 well plates (U bottom for drug dilution), Interferon alpha for positive control, fixation reagent (such as methanol: acetone), primary antibody (rabbit anti-NPTII), secondary antibody: Eu-N1 l, and enhancement solution.
HCV replicon-containing cells support high levels of viral RNA replicon replication when their density is suitable. Over-confluency causes decreased viral RNA replication. Therefore, cells must be kept growing in log phase in the presence of 500 micrograms/ml of G418. Generally, cells should be passed twice a week at 1: 4-6 dilution. Cell maintenance is conducted as follows:
HCV replicon-containing cells are examined under a microscope to ensure that cells growing well. Cells are rinsed once with PBS and 2 ml trypsin is added. The cell/trypsin mixture is incubated at 37° C. in a CO2 incubator for 3-5 minutes. After incubation 10 ml of complete media is added to stop the trypsinization reaction. Cells are blown gently, put into a 15 ml tube, and spun at 1200 rpm for 4 minutes. The trypsin/medium solution is removed. Medium (5 ml) is added and the cells are mixed carefully. The cells are counted.
The cells are then seeded onto 96-well plates at a density of 6000-7500 cells/100 microliters/well (6-7.5×10^5 cells/10 ml/plate). The plates are then incubated at 37° C. in a 5% CO2 incubator.
Cells are examined under a microscope approximated 24 hours after seeding and prior to adding drugs. If counting and dilution were performed correctly, cells are 60-70% confluent and nearly all cells should attach and spread evenly in the well.
HCV replicon-containing cells are rinsed with once PBS once; 2 mls of trypsin are then added. Cells are incubated at 37° C. in a 5% CO2 incubator for 3-5 minutes. […]

[1] = 72 h, HCV replicon in Huh-7 cells, three days incubation, read-out: EC50

Molecule `C=C[C@@H]1CC1(NC(=O)[C@@H]1C[C@@H](Oc2nc(-c3ccccn3)cc3c(Cl)c(OC)ccc23)CN1C(=O)[C@@H](CC(=O)N1CCC(C(F)(F)F)CC1)C(C)(C)C)C(=O)NS(=O)(=O)C1CC1` (mixture of isomers) [Compound 245, (2S,4R)-1-((S)-2-tert-butyl-4-oxo-4-(4-(trifluoro-methyl)piperidin-1-yl)butanoyl)-4-(5-chloro-6-methoxy-3-(pyridin-2-yl)isoquinolin-1-yloxy)-N-((S)-1-(cyclopropyl-sulfonylcarbamoyl)-2-vinylcyclo-propyl)pyrrolidine-2-carboxamide] has an EC50 [1] of less than 1000 nM.

`C=C[C@@H]1CC1(NC(=O)[C@@H]1C[C@@H](Oc2cc(-c3ccccn3)nc3c(C)c(OC)ccc23)CN1C(=O)[C@@H](CC(=O)N1CCC(C(F)(F)F)CC1)C(C)(C)C)C(=O)NS(=O)(=O)C1CC1` (mixture of isomers) [Compound 249, (2S,4R)-1-((S)-2-tert-butyl-4-oxo-4-(4-(trifluoro-methyl)piperidin-1-yl)butanoyl)-N-((S)-1-(cyclopropyl-sulfonylcarbamoyl)-2-vinylcyclopropyl)-4-(7-methoxy-8-methyl-2-(pyridin-2-yl)quinolin-4-yloxy)pyrrolidine-2-carboxamide] was tested, and the EC50 [1] was less than 1000 nM.

`C=C[C@@H]1CC1(NC(=O)[C@@H]1C[C@@H](Oc2cc(-c3nc(C(C)C)cs3)nc3c(C)c(OC)ccc23)CN1C(=O)[C@@H](CC(=O)N1CCC(C(F)(F)F)CC1)C(C)(C)C)C(=O)NS(=O)(=O)C1CC1` (stereo in doubt) [Compound 250, (2S,4R)-1-((S)-2-tert-butyl-4-oxo-4-(4-(trifluoro-methyl)piperidin-1-yl)butanoyl)-N-((S)-1-(cyclopropyl-sulfonylcarbamoyl)-2-vinylcyclopropyl)-4-(2-(4-isopropylthiazol-2-yl)-7-methoxy-8-methylquinolin-4-yloxy)pyrrolidine-2-carboxamide] gave an EC50 [1] of less than 1000 nM.

In the case of `C=C[C@@H]1CC1(NC(=O)[C@@H]1C[C@@H](Oc2cc(-c3cccnc3)nc3c(C)c(OC)ccc23)CN1C(=O)[C@@H](CC(=O)N1CCC(C(F)(F)F)CC1)C(C)(C)C)C(=O)NS(=O)(=O)C1CC1` (stereo in doubt) [Compound 253, (2S,4R)-1-((S)-2-tert-butyl-4-oxo-4-(4-(trifluoro-methyl)piperidin-1-yl)butanoyl)-N-((S)-1-(cyclopropyl-sulfonylcarbamoyl)-2-vinylcyclopropyl)-4-(7-methoxy-8-methyl-2-(pyridin-3-yl)quinolin-4-yloxy)pyrrolidine-2-carboxamide], the EC50 [1] is reported as less than 1000 nM.

`C=CC1CC1(NC(=O)[C@@H]1C[C@@H](Oc2cc(-c3ccccc3)nc3cc(OC)ccc23)CN1C(=O)[C@@H](CC(=O)O)C(C)(C)C)C(=O)OCC` (stereo partly drawn) [Compound 11, (3S)-3-((2S,4R)-2-(1-(ethoxycarbonyl)-2-vinylcyclopropylcarbamoyl)-4-(7-methoxy-2-phenylquinolin-4-yloxy)pyrrolidine-1-carbonyl)-4,4-dimethylpentanoic acid] gave an EC50 (Huh-7) of no more than 10000 nM.

In the case of `C=C[C@@H]1C[C@@]1(NC(=O)[C@@H]1C[C@@H](Oc2cc(-c3ccccc3)nc3cc(OC)ccc23)CN1C(=O)[C@@H](CC(=O)N1CCCCC1)C(C)(C)C)C(=O)NS(=O)(=O)C1CC1` [Compound 38, (2S,4R)-1-((S)-2-tert-butyl-4-oxo-4-(piperidin-1-yl)butanoyl)-N-((1S,2S)-1-(cyclopropylsulfonyl-carbamoyl)-2-vinylcyclopropyl)-4-(7-methoxy-2-phenylquinolin-4-yloxy)pyrrolidine-2-carboxamide], the EC50 [1] is reported as less than 1000 nM and the EC50 (Huh-7) is reported as no more than 10000 nM.

In the case of `C=CC1C[C@@]1(NC(=O)[C@@H]1C[C@@H](Oc2cc(-c3ccccc3)nc3cc(OC)ccc23)CN1C(=O)C[C@H](C(=O)N1CCCCC1)C(C)(C)C)C(=O)NS(=O)(=O)C1CC1` (stereo partly drawn) [Compound 39, (2S,4R)-N-(1-(cyclo-propylsulfonyl-carbamoyl)-2-vinylcyclopropyl)-1-((S)-4,4-dimethyl-3-(piperidine-1-carbonyl)pentano-yl)-4-(7-methoxy-2-phenylquinolin-4-yloxy)pyrrolidine-2-carboxamide], the EC50 [1] is reported as less than 1000 nM and the EC50 (Huh-7) is reported as no more than 10000 nM.

For `C=CC1CC1(NC(=O)[C@@H]1C[C@@H](Oc2cc(-c3ccccc3)nc3cc(OC)ccc23)CN1C(=O)[C@@H](CC(=O)N1CCc2ccccc2C1)C(C)(C)C)C(=O)NS(=O)(=O)C1CC1` (stereo partly drawn) [Compound 40, (2S,4R)-1-((S)-2-tert-butyl-4-(3,4-dihydro-isoquinolin-2(1H)-yl)-4-oxobutanoyl)-N-(1-(cyclopropyl-sulfonyl-carbamoyl)-2-vinylcyclopropyl)-4-(7-methoxy-2-phenylquinolin-4-yloxy)pyrrolidine-2-carboxamide], the EC50 [1] was less than 1000 nM and the EC50 (Huh-7) was no more than 10000 nM.

With `C=CC1CC1(NC(=O)[C@@H]1C[C@@H](Oc2cc(-c3ccccc3)nc3cc(OC)ccc23)CN1C(=O)[C@@H](CC(=O)N1CCCc2ccccc21)C(C)(C)C)C(=O)NS(=O)(=O)C1CC1` (stereo partly drawn) [Compound 41, (2S,4R)-1-((S)-2-tert-butyl-4-(3,4-dihydroquinolin-1(2H)-yl)-4-oxobutanoyl)-N-(1-(cyclopropyl-sulfonyl-carbamoyl)-2-vinylcyclopropyl)-4-(7-methoxy-2-phenylquinolin-4-yloxy)pyrrolidine-2-carboxamide] the EC50 [1] was less than 1000 nM.

In the case of `C=CC1CC1(NC(=O)[C@@H]1C[C@@H](Oc2cc(-c3ccccc3)nc3cc(OC)ccc23)CN1C(=O)[C@@H](CC(=O)N1CCCCC1C(N)=O)C(C)(C)C)C(=O)NS(=O)(=O)C1CC1` (stereo partly drawn) [Compound 42, 1-((3S)-3-((2S,4R)-2-(1-(cyclopropyl-sulfonyl-carbamoyl)-2-vinylcyclopropyl-carbamoyl)-4-(7-methoxy-2-phenylquinolin-4-yloxy)pyrrolidine-1-carbonyl)-4,4-dimethylpentano-yl)piperidine-2-carboxamide], the EC50 [1] is reported as less than 1000 nM.

With `C=CC1CC1(NC(=O)[C@@H]1C[C@@H](Oc2cc(-c3ccccc3)nc3cc(OC)ccc23)CN1C(=O)[C@@H](CC(=O)N1CCC(CCC)CC1)C(C)(C)C)C(=O)NS(=O)(=O)C1CC1` (stereo partly drawn) [Compound 43, (2S,4R)-1-((S)-2-tert-butyl-4-oxo-4-(4-propylpiperidin-1-yl)butanoyl)-N-(1-(cyclopropyl-sulfonyl-carbamoyl)-2-vinylcyclopropyl)-4-(7-methoxy-2-phenylquinolin-4-yloxy)pyrrolidine-2-carboxamide] the EC50 [1] was 1000 to 10000 nM.

`C=CC1CC1(NC(=O)[C@@H]1C[C@@H](Oc2cc(-c3ccccc3)nc3cc(OC)ccc23)CN1C(=O)[C@@H](CC(=O)N1CCCC(C)C1)C(C)(C)C)C(=O)NS(=O)(=O)C1CC1` (stereo partly drawn) [Compound 44, (2S,4R)-1-((2S)-2-tert-butyl-4-(3-methylpiperidin-1-yl)-4-oxobutanoyl)-N-(1-(cyclopropyl-sulfonyl-carbamoyl)-2-vinylcyclopropyl)-4-(7-methoxy-2-phenylquinolin-4-yloxy)pyrrolidine-2-carboxamide] showed an EC50 [1] of 1000 to 10000 nM.

`C=CC1CC1(NC(=O)[C@@H]1C[C@@H](Oc2cc(-c3ccccc3)nc3cc(OC)ccc23)CN1C(=O)[C@@H](CC(=O)N1CCCC(C(N)=O)C1)C(C)(C)C)C(=O)NS(=O)(=O)C1CC1` (stereo partly drawn) [Compound 45, 1-((3S)-3-((2S,4R)-2-(1-(cyclopropyl-sulfonylcarbamoyl)-2-vinylcyclopropyl-carbamoyl)-4-(7-methoxy-2-phenylquinolin-4-yloxy)pyrrolidine-1-carbonyl)-4,4-dimethylpentano-yl)piperidine-3-carboxamide] gave an EC50 [1] of 1000 to 10000 nM.
